Source: patent US7135457B1, “Random peptides that bind to gastro-intestinal tract (GIT) transport receptors and related methods” (Cytogen Corporation, priority 1997, dated 2006)
Peptide text beside a SMILES is read from it. * marks the point of attachment. Dansyl = CN(C)c1cccc2c(S(=O)(=O)*)cccc12

System: P100 membrane fractions derived from Caco-2 cells
Experiment: Dansylated peptide ELISA on P100: PAX2 and HAX42 peptides relative binding
Method: The peptides and proteins were analyzed by a dansylated peptide ELISA method in which 96 well plates were coated overnight at 4° C. with 100 μl/well coating protein (normally 100 μg/ml P100 membrane fraction) in 0.05M carbonate buffer pH9.6. Nonspecific binding was blocked using 200 μl/well, 2% Marvel/PBS for 2 hours at 37° C. prior to incubation with dansylated peptides. The plates were washed three times with PBS/0.05% Tween 20 and after each subsequent incubation step. […] A buffer blank control was included to ensure that background binding to plastic was not due to the antibodies used in the assay system. […] The plates were then incubated with an anti-mouse λ-HRP conjugated antibody (Southern Biotech 1060-05) at a 1:10,000 dilution in blocking solution, 100 μl/well for 1 hour at room temperature. Plates were developed using 75 μl/well Bionostics TMB substrate and incubated for approximately 10 minutes. The developing reaction was stopped using Bionostics Red Stop solution (25 μl/well), and the optical density of the plates was read at 650 nm.

[1] = HAX42 peptides, ratio to ZElan021 (arbitrary 1.00)
[2] = HAX42 peptides, ratio to ZElan021 (arbitrary 1.00), first 50 μg/ml column
[3] = HAX42 peptides, ratio to ZElan021 (arbitrary 1.00), second 50 μg/ml column
[4] = PAX2 peptides, ratio to ZElan021 (HAX42 = 1.00), first 20 μg/ml column
[5] = PAX2 peptides, ratio to ZElan021 (HAX42 = 1.00), first 50 μg/ml column
[6] = PAX2 peptides, ratio to ZElan021 (HAX42 = 1.00), second 50 μg/ml column
[7] = PAX2 peptides, ratio to ZElan021 (HAX42 = 1.00), second 20 μg/ml column

| Compound | Binding value at 20 μg/ml [1] | Binding value at 50 μg/ml [2] | Binding value at 50 μg/ml [3] | Binding value at 20 μg/ml [4] | Binding value at 50 μg/ml [5] | Binding value at 50 μg/ml [6] | further results |
| --- | --- | --- | --- | --- | --- | --- | --- |
| CC[C@H](C)[C@H](NC(=O)[C@H](C)NC(=O)[C@H](CO)NC(=O)[C@@H]1CCCN1C(=O)[C@H](CCCNC(=N)N)NC(=O)[C@H](CCCNC(=N)N)NC(=O)[C@H](CCCNC(=N)N)NC(=O)[C@H](CC(N)=O)NC(=O)[C@H](Cc1ccccc1)NC(=O)[C@@H](NC(=O)[C@H](CCCCN)NC(=O)[C@H](CCCNC(=N)N)NC(=O)CNC(=O)[C@@H](NC(=O)[C@H](CO)NC(=O)[C@H](CC(N)=O)NC(=O)CNC(=O)[C@H](CC(N)=O)NC(=O)CNC(=O)[C@H](CS)NC(=O)[C@H](CS)NC(=O)[C@H](CC(N)=O)NC(=O)[C@H](Cc1ccc(O)cc1)NC(=O)[C@H](CC(=O)O)NC(=O)CNC(=O)[C@@H](N)CCCCNS(=O)(=O)c1cccc2c(N(C)C)cccc12)[C@@H](C)O)C(C)C)C(=O)N1CCC[C@H]1C(=O)N[C@H](C(N)=O)[C@@H](C)O [ZElan061] (H-K(Dansyl)GDYNCCGNGNSTGRKVFNRRRPSAIPT-NH2) | 0.20 | 0.60 | 0.38 |  |  |  |  |
| CC(C)C[C@H](NC(=O)[C@H](C)NC(=O)[C@H](Cc1c[nH]cn1)NC(=O)[C@H](CC(=O)O)NC(=O)[C@H](CO)NC(=O)[C@@H](N)CCCCNS(=O)(=O)c1cccc2c(N(C)C)cccc12)C(=O)NCC(=O)N[C@H](C(=O)N[C@@H](CC(N)=O)C(=O)N[C@@H](CC(C)C)C(=O)N[C@@H](CCCNC(=N)N)C(=O)N[C@@H](CO)C(=O)N[C@@H](CC(=O)O)C(=O)N[C@@H](CC(N)=O)C(=O)N[C@@H](C)C(=O)N[C@@H](CCCCN)C(=O)N[C@@H](CCC(=O)O)C(=O)N1CCC[C@H]1C(=O)NCC(=O)N[C@@H](CC(=O)O)C(=O)N[C@@H](Cc1ccc(O)cc1)C(=O)N[C@@H](CC(N)=O)C(=O)N[C@@H](CS)C(=O)N[C@@H](CS)C(=O)NCC(=O)N[C@@H](CC(N)=O)C(=O)NCC(N)=O)[C@@H](C)O [ZElan060] (H-K(Dansyl)SDHALGTNLRSDNAKEPGDYNCCGNG-NH2) | 0.44 | 0.56 | 0.43 |  |  |  |  |
| CC(C)C[C@H](NC(=O)[C@H](CCCNC(=N)N)NC(=O)[C@H](CCCNC(=N)N)NC(=O)[C@H](CC(N)=O)NC(=O)[C@H](Cc1c[nH]cn1)NC(=O)[C@H](CO)NC(=O)[C@H](CO)NC(=O)[C@H](Cc1c[nH]cn1)NC(=O)[C@H](CCCCN)NC(=O)[C@H](C)NC(=O)[C@H](CC(N)=O)NC(=O)[C@@H](NC(=O)[C@@H](N)CCCCNS(=O)(=O)c1cccc2c(N(C)C)cccc12)[C@@H](C)O)C(=O)N[C@@H](CCCNC(=N)N)C(=O)N[C@H](C(=O)N[C@@H](CCCNC(=N)N)C(N)=O)[C@@H](C)O [ZElan033] (H-K(Dansyl)TNAKHSSHNRRLRTR-NH2) |  |  |  | 0.35 | 0.80 | 0.66 |  |
| H-K(Dansyl)STPPSREAYSRPYSVDSDSDTNAKHSSHNRRLRTRSRPNG-NH2 [ZElan018] |  |  |  | −0.33 | 0.95 |  |  |
| CC(C)C[C@H](NC(=O)[C@H](C)NC(=O)[C@H](Cc1c[nH]cn1)NC(=O)[C@H](CC(=O)O)NC(=O)[C@H](CO)NC(=O)[C@@H](N)CCCCNS(=O)(=O)c1cccc2c(N(C)C)cccc12)C(=O)NCC(=O)N[C@H](C(=O)N[C@@H](CC(N)=O)C(=O)N[C@@H](CC(C)C)C(=O)N[C@@H](CCCNC(=N)N)C(=O)N[C@@H](CO)C(=O)N[C@@H](CC(=O)O)C(=O)N[C@@H](CC(N)=O)C(=O)N[C@@H](C)C(=O)N[C@@H](CCCCN)C(=O)N[C@@H](CCC(=O)O)C(=O)N1CCC[C@H]1C(=O)NCC(=O)N[C@@H](CC(=O)O)C(=O)N[C@@H](Cc1ccc(O)cc1)C(=O)N[C@@H](CC(N)=O)C(=O)N[C@@H](CS)C(=O)N[C@@H](CS)C(=O)NCC(=O)N[C@@H](CC(N)=O)C(=O)NCC(=O)N[C@@H](CC(N)=O)C(=O)N[C@@H](CO)C(=O)N[C@H](C(N)=O)[C@@H](C)O)[C@@H](C)O [ZElan070] (H-K(Dansyl)SDHALGTNLRSDNAKEPGDYNCCGNGNST-NH2) | 0.59 | 0.97 | 0.39 |  |  |  |  |
| CC[C@H](C)[C@H](NC(=O)[C@H](C)NC(=O)[C@H](CO)NC(=O)[C@@H]1CCCN1C(=O)[C@H](CCCNC(=N)N)NC(=O)[C@H](CCCNC(=N)N)NC(=O)[C@H](CC(N)=O)NC(=O)[C@H](Cc1ccccc1)NC(=O)[C@@H](NC(=O)[C@H](CCCCN)NC(=O)[C@H](CCCNC(=N)N)NC(=O)CNC(=O)[C@@H](NC(=O)[C@H](CO)NC(=O)[C@H](CC(N)=O)NC(=O)CNC(=O)[C@H](CC(N)=O)NC(=O)CNC(=O)[C@H](CS)NC(=O)[C@H](CS)NC(=O)[C@H](CC(N)=O)NC(=O)[C@H](Cc1ccc(O)cc1)NC(=O)[C@H](CC(=O)O)NC(=O)CNC(=O)[C@@H]1CCCN1C(=O)[C@@H](N)CCCCNS(=O)(=O)c1cccc2c(N(C)C)cccc12)[C@@H](C)O)C(C)C)C(=O)N1CCC[C@H]1C(=O)N[C@H](C(N)=O)[C@@H](C)O [ZElan072] (H-K(Dansyl)PGDYNCCGNGNSTGRKVFNRRPSAIPT-NH2) | 0.83 | 0.61 | 0.88 |  |  |  |  |
| CC(C)C[C@H](NC(=O)[C@H](CCCNC(=N)N)NC(=O)[C@H](CCCNC(=N)N)NC(=O)[C@H](CC(N)=O)NC(=O)[C@H](Cc1c[nH]cn1)NC(=O)[C@H](CO)NC(=O)[C@H](CO)NC(=O)[C@@H](N)CCCCNS(=O)(=O)c1cccc2c(N(C)C)cccc12)C(=O)N[C@@H](CCCNC(=N)N)C(=O)N[C@H](C(=O)N[C@@H](CCCNC(=N)N)C(N)=O)[C@@H](C)O [ZElan035] (H-K(Dansyl)SSHNRRLRTR-NH2) |  |  |  | 0.12 | 0.81 | 0.77 | Binding value at 20 μg/ml [7]: 0.43 |
| CC(C)C[C@H](NC(=O)[C@H](C)NC(=O)[C@H](Cc1c[nH]cn1)NC(=O)[C@H](CC(=O)O)NC(=O)[C@H](CO)NC(=O)[C@@H](N)CCCCNS(=O)(=O)c1cccc2c(N(C)C)cccc12)C(=O)NCC(=O)N[C@H](C(=O)N[C@@H](CC(N)=O)C(=O)N[C@@H](CC(C)C)C(=O)N[C@@H](CCCNC(=N)N)C(=O)N[C@@H](CO)C(=O)N[C@@H](CC(=O)O)C(=O)N[C@@H](CC(N)=O)C(=O)N[C@@H](C)C(=O)N[C@@H](CCCCN)C(=O)N[C@@H](CCC(=O)O)C(=O)N1CCC[C@H]1C(=O)NCC(N)=O)[C@@H](C)O [ZElan062] (H-K(Dansyl)SDHALGTNLRSDNAKEPG-NH2) | 0.11 | 0.42 | 0.34 |  |  |  |  |
| CC(C)C[C@H](NC(=O)[C@H](CCCNC(=N)N)NC(=O)[C@H](CCCNC(=N)N)NC(=O)[C@@H](N)CCCCNS(=O)(=O)c1cccc2c(N(C)C)cccc12)C(=O)N[C@@H](CCCNC(=N)N)C(=O)N[C@H](C(=O)N[C@@H](CCCNC(=N)N)C(N)=O)[C@@H](C)O [ZElan058, H2N-K(dns)RRLRTR-CONH2] (H-K(Dansyl)RRLRTR-NH2) |  |  |  | 0.05 | 0.47 | 0.16 |  |
| CC(C)C[C@H](NC(=O)[C@H](CCCNC(=N)N)NC(=O)[C@H](CCCNC(=N)N)NC(=O)[C@H](CC(N)=O)NC(=O)[C@H](Cc1c[nH]cn1)NC(=O)[C@H](CO)NC(=O)[C@H](CO)NC(=O)[C@@H](N)CCCCNS(=O)(=O)c1cccc2c(N(C)C)cccc12)C(=O)N[C@@H](CCCNC(=N)N)C(=O)N[C@H](C(=O)N[C@@H](C)C(N)=O)[C@@H](C)O [ZElan082] (H-K(Dansyl)SSHNRRLRTA-NH2) |  |  |  | 0.00 | 0.92 | 0.40 |  |
| CN(C)c1cccc2c(S(=O)(=O)NCCCC[C@H](N)C(=O)N[C@@H](CC(N)=O)C(=O)N[C@@H](CCCNC(=N)N)C(=O)N[C@@H](CCCNC(=N)N)C(=O)N[C@@H](CCCNC(=N)N)C(=O)N3CCC[C@H]3C(=O)N[C@@H](CO)C(N)=O)cccc12 [ZElan067, H2N-K(dns)NRRRPS-CONH2] (H-K(Dansyl)NRRRPS-NH2) | 0.08 | 0.52 | 0.40 |  |  |  |  |
| H-K(Dansyl)SDHALGTNLRSDNAKEPGDYNCCGNGNSTGRKVFNRRRPSAIPT-NH2 (cysteines drawn unpaired) [ZElan021] | 1.00 | 1.00 | 1.00 |  |  |  | Binding value at 25 μg/ml (HAX42 peptides, ratio to ZElan021 (arbitrary 1.00), first 25 μg/ml column): 1.00; Binding value at 25 μg/ml (HAX42 peptides, ratio to ZElan021 (arbitrary 1.00), second 25 μg/ml column): 1.00; Binding value at 25 μg/ml (HAX42 peptides, ratio to ZElan021 (arbitrary 1.00), third 25 μg/ml column): 1.00 |
| CC(C)C[C@H](NC(=O)[C@H](CCCNC(=N)N)NC(=O)[C@H](CCCNC(=N)N)NC(=O)[C@H](CC(N)=O)NC(=O)[C@H](Cc1c[nH]cn1)NC(=O)[C@H](CO)NC(=O)[C@H](CO)NC(=O)[C@@H](N)CCCCNS(=O)(=O)c1cccc2c(N(C)C)cccc12)C(=O)N[C@@H](CCCNC(=N)N)C(=O)N[C@@H](C)C(=O)N[C@@H](CCCNC(=N)N)C(N)=O [ZElan081] (H-K(Dansyl)SSHNRRLRAR-NH2) |  |  |  | 0.01 | 0.89 | 0.47 |  |
| H-K(Dansyl)GRNHDVVSSNTHKSYRSPRSASYPRLSNDRTDRTEPAPSS-NH2 [ZElan083] |  |  |  | 0.43 |  | 0.88 | Binding value at 20 μg/ml [7]: 0.63 |
